# In US8017611B2, “Pyridine and pyrazine derivatives -083” (AstraZeneca AB, priority 2007, dated 2011):
# Target: T1, recombinant Axl tyrosine kinase (Homo sapiens, UniProt P30530)
# T1 construct: encompassing amino acids 473 to 894 of Axl; GST (N); made in house; host or cells: SF126 insect cells
# T1 sequence (P30530 473-894): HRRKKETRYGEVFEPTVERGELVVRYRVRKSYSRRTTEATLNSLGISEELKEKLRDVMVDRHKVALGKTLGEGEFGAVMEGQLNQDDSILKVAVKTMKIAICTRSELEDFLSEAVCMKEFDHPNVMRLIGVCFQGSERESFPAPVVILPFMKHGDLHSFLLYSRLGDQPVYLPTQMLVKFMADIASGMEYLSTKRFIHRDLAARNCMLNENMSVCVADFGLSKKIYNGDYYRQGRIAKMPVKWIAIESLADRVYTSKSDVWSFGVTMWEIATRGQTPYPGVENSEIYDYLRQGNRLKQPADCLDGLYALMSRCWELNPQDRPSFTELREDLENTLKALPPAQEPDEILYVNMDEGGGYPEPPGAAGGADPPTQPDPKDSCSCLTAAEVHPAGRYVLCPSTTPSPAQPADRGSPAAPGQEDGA
# Experiment: In vitro Axl kinase assay (AlphaScreen), Test (a)
# Type: biochemical
# Conditions: 1 μM; mean calculated from a larger number of replicates than the first value
row,"% Axl tyrosine kinase inhibition at 1 μM concentration (second value, †) [%]",Structure (SMILES)
1,94.5,Nc1ncc(-c2cccc(N3CCOCC3)c2)cc1-c1nc2ccccc2o1 [Example 2.49]
2,86.6,Nc1ncc(-c2cccc(N3CCOCC3)c2)cc1-c1nc2cnccc2o1 [Example 8A.4]

# Same assay, conditions: 1 μM; mean calculated from a larger number of replicates than the first value; read-out: % Axl tyrosine kinase inhibition at 1 μM concentration (second value, †)
row,inhibition at 1 µM [%],Structure (SMILES)
1,99.8,"CN1CCC(n2cc(-c3cnc(N)c(-c4nc5ccccc5o4)c3)cn2)CC1 [Example 3, 3-(1,3-Benzoxazol-2-yl)-5-[1-(1-methyl-4-piperidyl)pyrazol-4-yl]pyridin-2-amine]"

# Same assay, conditions: test compound at 1 μM; first value quoted
row,% Axl tyrosine kinase inhibition at 1 μM concentration [%],Structure (SMILES)
1,46.4,Nc1ncc(-c2cccc(N3CCCCC3)c2)cc1-c1nc2ccccc2o1 [Example 2.46]
2,98.5,CC(=O)N1CCC(n2cc(-c3cnc(N)c(-c4nc5ncccc5o4)c3)cn2)CC1 [Example 57.1]
3,98.7,NC(=O)c1ccc(-c2cnc(N)c(-c3nc4cnccc4o3)c2)cc1 [Example 8A.9]
4,98.9,Nc1ncc(-c2ccc(C(=O)NC[C@@H]3CCCN3)cc2)cc1-c1nc2cccnc2o1 [Example 45A.90]
5,96.1,CN(C)[C@H]1CCN(C(=O)c2ccc(-c3cnc(N)c(-c4nc5cccnc5o4)c3)cc2)C1 [Example 45A.77]
6,92.7,CN(C)S(=O)(=O)c1ccc(-c2cnc(N)c(-c3nc4ccccc4o3)n2)cc1 [Example 20.12]
7,99.9,CN(C)c1nn(C2CCNCC2)cc1-c1cnc(N)c(-c2nc3ccccc3o2)c1 [Example 62.3]
8,93.6,Nc1ncc(-c2cccc(N3CCOCC3)c2)cc1-c1nc2ccccc2o1 [Example 2.49]
9,98.9,Nc1ncc(-c2ccc(C(=O)N3CCC(O)CC3)cc2)cc1-c1nc2ccccc2o1 [Example 2.11]
10,95.6,CN(C)CCNC(=O)c1cccc(-c2cnc(N)c(-c3nc4cnccc4o3)c2)c1 [Example 8A.24]
11,89.8,Nc1ncc(-c2cccc(N3CCOCC3)c2)cc1-c1nc2cnccc2o1 [Example 8A.4]
12,99.0,CN1CCC(n2cc(-c3cnc(N)c(-c4nc5ccc(Cl)cc5o4)c3)cn2)CC1 [Example 7.7]
13,99.3,COc1cc(-c2cnc(N)c(-c3nc4ncccc4o3)c2)ccc1OC1CCNC1 (stereo not shown) [Example 43C.23]
14,92.3,Nc1ncc(-c2ccc(OCCOCCN3CCNCC3)cc2)cc1-c1nc2ncccc2o1 [Example 43B.43]
15,99.6,CNC(=O)c1nn(C2CCN(C)CC2)cc1-c1cnc(N)c(-c2nc3ccccc3o2)c1 [Example 41.33]
16,99.6,CCN1CCCC1CNC(=O)c1ccc(-c2cnc(N)c(-c3nc4cccnc4o3)c2)cc1 (stereo not shown) [Example 45A.72]
17,97.8,CNC(=O)CN1CCC(n2cc(-c3cnc(N)c(-c4nc5ncccc5o4)c3)cn2)CC1 [Example 53.2]
18,45.4,Nc1ncc(-c2ccc3c(c2)OCCO3)cc1-c1nc2ccccc2o1 [Example 2.21]
19,93.8,C[C@@H]1CN(CCNC(=O)c2ccc(-c3cnc(N)c(-c4nc5cccnc5o4)c3)cc2)C[C@H](C)O1 [Example 45A.45]
20,97.3,Nc1ncc(-c2ccc(C(=O)NC3CCNCC3)cc2)cc1-c1nc2cccnc2o1 [Example 45A.103]
21,98.9,Nc1ncc(-c2ccc(C(=O)NCCN3CCCC3)cc2)cc1-c1nc2cccnc2o1 [Example 45A.55]
22,99.3,CN1CCC(NC(=O)c2ccc(-c3cnc(N)c(-c4nc5cccnc5o4)c3)cc2)C2CCCCC21 (stereo not shown) [Example 45A.44]
23,99.8,CN1CCC(n2cc(-c3cnc(N)c(-c4nc5ccccc5o4)c3)c(C(N)=O)n2)CC1 [Example 41.35]

row,% Axl tyrosine kinase inhibition at 1 μM concentration [%],Structure (SMILES)
1,98.3,CN1CCCN(C(=O)c2ccc(-c3cnc(N)c(-c4nc5cccnc5o4)c3)cc2)CC1 [Example 45A.65]
2,99.1,CN(C(=O)c1ccc(-c2cnc(N)c(-c3nc4cccnc4o3)c2)cc1)C1CCNCC1 [Example 45A.96]
3,99.5,COc1cc(-c2cnc(N)c(-c3nc4ncccc4o3)c2)ccc1OCCN1CCNCC1 [Example 43C.25]
4,77.4,Nc1ncc(-c2ccc(C(=O)N3CCC4(CCCNC4)CC3)cc2)cc1-c1nc2cccnc2o1 [Example 45A.87]
5,91.3,Nc1ncc(-c2ccc(C(=O)N3CCN(CCN4CCCC4)CC3)cc2)cc1-c1nc2cccnc2o1 [Example 45A.68]
6,99.6,CN(C)CC(=O)N1CCC(n2cc(-c3cnc(N)c(-c4nc5cccnc5o4)c3)cn2)CC1 [Example 59.7]
7,98.1,Nc1ncc(-c2ccc(C(=O)N3CCN(Cc4ccccn4)CC3)cc2)cc1-c1nc2cccnc2o1 [Example 45A.60]
8,99.9,CC(C)N1CCC[C@H]1CNC(=O)c1ccc(-c2cnc(N)c(-c3nc4cccnc4o3)c2)cc1 [Example 45A.43]
9,95.9,CNC1CCC(NC(=O)c2ccc(-c3cnc(N)c(-c4nc5cccnc5o4)c3)cc2)CC1 (stereo not shown) [Example 45A.99]
10,95.6,Nc1ncc(-c2ccc(CO)s2)cc1-c1nc2cccnc2o1 [Example 9A.19]
11,95.6,Nc1ncc(-c2cccc(CN3CCCC3)c2)cc1-c1nc2cnccc2o1 [Example 8A.1]
12,80.3,Nc1ncc(-c2cccc(C(=O)NC3CC3)c2)cc1-c1nc2ccncc2o1 [Example 11A.7]
13,99.8,CN1CCN(c2ccc(-c3cnc(N)c(-c4nc5ccccc5o4)c3)cn2)CC1 [Example 2.54]
14,99.8,Nc1ncc(-c2ccc(C(=O)N3CCC[C@H](N)C3)cc2)cc1-c1nc2cccnc2o1 [Example 45A.88]
15,40.3,COCCOc1ccc(-c2cnc(N)c(-c3nc4ccccc4o3)c2)cc1 [Example 2.9]
16,98.0,CS(=O)(=O)Nc1ccc(-c2cnc(N)c(-c3nc4ccccc4o3)c2)cc1 [Example 2.27]
17,99.1,CN1CCC(n2cc(-c3cnc(N)c(-c4nc5cc(Br)ccc5o4)c3)cn2)CC1 [Example 7.5]
18,99.8,CCN(CC)CCOc1ccc(-c2cnc(N)c(-c3nc4ncccc4o3)c2)cc1OC [Example 43C.4]
19,99.9,COc1cc(-c2cnc(N)c(-c3nc4ncccc4o3)c2)ccc1OC1CCCN(C)C1 (stereo not shown) [Example 43C.9]
20,99.3,COCCC(=O)N1CCC(n2cc(-c3cnc(N)c(-c4nc5ncccc5o4)c3)cn2)CC1 [Example 59.1]
21,97.5,Nc1ncc(-c2cccc(-c3ccn[nH]3)c2)cc1-c1nc2cnccc2o1 [Example 8A.28]
22,71.3,Nc1ncc(-c2cccc(S(=O)(=O)N3CCOCC3)c2)cc1-c1nc2cnccc2o1 [Example 8A.13]

row,Structure (SMILES),% Axl tyrosine kinase inhibition at 1 μM concentration [%]
1,CN1C2CCC1CC(n1cc(-c3cnc(N)c(-c4nc5ccccc5o4)c3)cn1)C2 (stereo not shown) [Example 27.6],99.9
2,Nc1ncc(-c2cccc(NC(=O)C3CCNCC3)c2)cc1-c1nc2cnccc2o1 [Example 8A.26],97.9

# Same assay, conditions: test compound at 1 μM; first value quoted; read-out: % Axl tyrosine kinase inhibition at 1 μM concentration
row,inhibition at 1 µM [%],Structure (SMILES)
1,99.5,"Nc1ncc(-c2cccc(N3CCNCC3)c2)cc1-c1nc2ccccc2o1 [Example 2.10, 3-(1,3-Benzoxazol-2-yl)-5-(3-piperazin-1-ylphenyl)pyridin-2-amine]"
2,82.9,"CN1CCN(c2ncc(-c3cnc(N)c(-c4nc5ccccc5o4)c3)s2)CC1 [Example 25.5, 3-(1,3-benzoxazol-2-yl)-5-[2-(4-methylpiperazin-1-yl)thiazol-5-yl]pyridin-2-amine]"
3,99.3,"Nc1ncc(-c2cnn(CCO)c2)cc1-c1nc2ccccc2o1 [Example 28, 2-[4-[6-amino-5-(1,3-benzoxazol-2-yl)-3-pyridyl]pyrazol-1-yl]ethanol]"
4,100,"CN1CCC(n2cc(-c3cnc(N)c(-c4nc5ccccc5o4)c3)cn2)CC1 [Example 3, 3-(1,3-Benzoxazol-2-yl)-5-[1-(1-methyl-4-piperidyl)pyrazol-4-yl]pyridin-2-amine]"
5,99.5,"CC(C)(C)OC(=O)N1CCC(n2cc(-c3cnc(N)c(-c4nc5ccccc5o4)c3)cn2)CC1 [Example 2.2, tert-butyl 4-[4-[6-amino-5-(1,3-benzoxazol-2-yl)-3-pyridyl]pyrazol-1-yl]piperidine-1-carboxylate]"
6,97.1,"COc1cc(-c2cnc(N)c(-c3nc4ncccc4o3)c2)ccc1OCCN1CCOCC1 [Example 43C.2, 5-[3-methoxy-4-(2-morpholinoethoxy)phenyl]-3-oxazolo[4,5-b]pyridin-2-yl-pyridin-2-amine]"
7,99.2,"Nc1ncc(-c2cnn(C3CCCCO3)c2)cc1-c1nc2ccccc2o1 (stereo not shown) [Example 2.55, 3-(1,3-benzoxazol-2-yl)-5-(1-tetrahydropyran-2-ylpyrazol-4-yl)pyridin-2-amine]"
8,100,"CN(C)C(=O)CN1CCC(n2cc(-c3cnc(N)c(-c4nc5ccccc5o4)c3)c(CO)n2)CC1 [Example 69, 2-[4-[4-[6-amino-5-(1,3-benzoxazol-2-yl)-3-pyridyl]-3-(hydroxymethyl)pyrazol-1-yl]-1-piperidyl]-N,N-dimethyl-acetamide]"
